Experiment: Solubility of pesticides in solvents (pesticide powder added in 2% stepwise increments)
Type: physicochemical
Conditions: for Dissolving ability of Comparative Solvent B compared with Inventive Solvent 1: comparison Solvesso 150 vs ethyl 3-ethoxypropionate; for Dissolving ability of Comparative Solvent B compared with Inventive Solvent 1 / Dissolving ability of Comparative Solvent A compared with Inventive Solvent 1: in words; for Dissolving ability of Comparative Solvent A compared with Inventive Solvent 1: comparison xylene vs ethyl 3-ethoxypropionate; for Solubility in Comparative Solvent B: solvent Solvesso 150; for Solubility in Comparative Solvent B / Solubility in Inventive Solvent 1 / Solubility in Comparative Solvent A: concentration just prior to the one where the powder is not dissolved, no more than 2% lower than actual solubility; for Solubility in Inventive Solvent 1: solvent ethyl 3-ethoxypropionate; for Solubility in Comparative Solvent A: solvent xylene
Method: The solubility of various pesticides in these solvents are evaluated.
Each pesticide powder is added by solvent in 2% stepwise increments to the final pesticide concentration. Each pesticide reaches a concentration where the pesticide powder is not dissolved by the solvent.

Compound: Cc1c(COC(=O)[C@@H]2[C@H](/C=C(\Cl)C(F)(F)F)C2(C)C)cccc1-c1ccccc1 (racemic) [Bifenthrin]
- Dissolving ability of Comparative Solvent B compared with Inventive Solvent 1: comparable dissolving ability
- Dissolving ability of Comparative Solvent A compared with Inventive Solvent 1: stronger dissolving ability
- Solubility in Comparative Solvent B: 44 weight %
- Solubility in Inventive Solvent 1: 43 weight %
- Solubility in Comparative Solvent A: 45 weight %

Compound: CC(C)N1C(=O)N(c2ccccc2)CS/C1=N\C(C)(C)C [Buprofezin]
- Dissolving ability of Comparative Solvent B compared with Inventive Solvent 1: comparable dissolving ability
- Solubility in Comparative Solvent B: 16 weight %
- Solubility in Inventive Solvent 1: 18 weight %
- Solubility in Comparative Solvent A: 10 weight %

Compound: CCOP(=S)(OCC)Oc1nc(Cl)c(Cl)cc1Cl [Chlopyrifos]
- Dissolving ability of Comparative Solvent A compared with Inventive Solvent 1: stronger dissolving ability
- Solubility in Comparative Solvent B: 54 weight %
- Solubility in Inventive Solvent 1: 63 weight %
- Solubility in Comparative Solvent A: 70 weight %

Compound: CCCCC(C#N)(Cn1cncn1)c1ccc(Cl)cc1 (stereo not shown) [Myclobutanil]
- Solubility in Comparative Solvent B: 23 weight %
- Solubility in Inventive Solvent 1: 39 weight %
- Solubility in Comparative Solvent A: 27 weight %

Compound: COC(=O)N(OC)c1ccccc1COc1ccn(-c2ccc(Cl)cc2)n1 [Pyraclostrobin]
- Solubility in Comparative Solvent B: 31 weight %
- Solubility in Inventive Solvent 1: 47 weight %
- Solubility in Comparative Solvent A: 42 weight %

Compound: CC(C)(C)C(O)(CCc1ccc(Cl)cc1)Cn1cncn1 (stereo not shown) [Tebuconazole]
- Solubility in Comparative Solvent B: 2.0 weight %
- Solubility in Inventive Solvent 1: 16 weight %
- Solubility in Comparative Solvent A: 4.0 weight %

Compound: CC(C)(C)C(=O)C(Oc1ccc(Cl)cc1)n1cncn1 (stereo not shown) [Triazolone]
- Solubility in Comparative Solvent B: 12 weight %
- Solubility in Inventive Solvent 1: 32 weight %
- Solubility in Comparative Solvent A: 23 weight %

From patent US20200253196A1, “SOLVENTS FOR AGRICULTURAL APPLICATIONS AND PESTICIDE FORMULATIONS” (priority 2017, published 2020)
